Publication PMC6591174, “The beneficial androgenic action of steroidal aromatase inactivators in estrogen-dependent breast cancer after failure of nonsteroidal drugs” (Cell Death & Disease, 2019)

What was measured:
[1] = system: CCND1 promoter in MCF-7 cells; experiment: ChIP-qPCR on the CCND1 promoter; type: cell-based, human; settings: 10^-7 M, 2 h
Method: Fig. 7 The effect of activated AR on CCND1 expression by changing histone modifications of its promoter. The experimental protocol was as described in “Materials and methods”. a and b The expression of the cyclin D1 protein. Blots were also probed for tubulin (bottom) to verify equal amounts of protein loaded in each lane. The densitometric evaluation is calculated by ImageJ. c The abundance of cyclin D1 mRNA has been detected by real-time reverse transcription-PCR, as described in “Materials and methods”. d–h MCF-7 cells were grown in 10 cm dishes. Confluent cultures (80%) were shifted to PRF for 24 h and then treated with indicated compounds at a concentration of 10^−7 M or left untreated in PRF-CT for 2 h. ChIPs were carried out on serum starved MCF-7 cells as described in “Materials and methods”. Cells were lysed and proteins were precipitated using antibodies against AR (d), H3K4me3 (e), H3K9me3 (f), H3K9ac (g), H3K27ac (h) or rabbit IgG (2 μg/sample each). In control samples (Ig), normal rabbit IgG was used instead of the primary antibodies as control of antibody specificity. Inputs DNA were amplified as loading controls. Five regions of CCND1 promoter were examined by quantitative PCR analysis. The region containing the ARE site was detected by PCR with specific primers (p1-ARE) for antibodies of AR and H3K4me3. Specific primers P4 and p5 were used to investigate the changes in methylation or acetylation of H3K9.
MCF-7 cells were grown in 10 cm dishes. Confluent cultures (80%) were shifted to PRF for 24 h and then treated with various drugs at a concentration of 10^–7 M (as shown in Fig. 8) or left untreated in 5% PRF-CT for 2 h. Following treatment, ChIP assay was performed as described by Morelli et al. and using a simple Chip plus Sonication Chromatin IP kit (Cell Signaling Technology, #56383), following the manufacturer’s protocol. The cells were sonicated 10 times for 10 s at 20% of maximal power (Fisher Sonic Dismembrator) and then treated according to the protocol. Anti-AR (Cat. No. 5153), anti-H3K4me3 (Cat. No. 9751), anti-H3K9me3 (Cat. No. 13969), anti-H3K9ace (Cat. No. 9649), anti-H3K27ace (Cat. No. 8173) or rabbit IgG (Cat. No. 3900) of Cell Signaling Technology antibody were used to precipitate chromatin fragments from cell extracts. We used real-time quantitative PCR (SYBR green) to amplify the DNA fragment in the antibody precipitated DNA and the unprecipitated input DNA to calculate ΔCT values. A specific primer pair was used to amplify 134 bp of the ARE-containing cyclin D1 promoter fragment. For the histone modification antibody, another four pairs of prime locating at 1000 to −2000 bp region from the transcription initiation site of CCND1 were used besides the prime containing ARE. The RQ values (RQ = 2^–ΔCT) are presented and reflect the precipitated DNA as a percentage of the input DNA.

MCF-7 cells = experiment: Cell proliferation assay (CCK8), MCF-7; type: cell-based, human; settings: for proliferation of MCF-7 cells: 1 nM-10 μM, 6 days, 10% PRF-CT with 1 nM E2; for antiproliferative effect in presence of OH-Flutamide, MCF-7: 100 nM compound with 100 nM OH-Flutamide
Method: Fig. 2 Proliferative response of cancer cells to indicated compounds. a–c the effect of concentrations of different compounds on the growth of the cells. […] Cell growth was measured as described in the “Materials and methods”. The proliferation of cells is expressed as the ratio of the cells compared with the control wells (untreated cells). d, e Influence of different compounds on the cell cycle of MCF-7 cells. MCF-7 cells were cultured in 10% PRF-CT with E2 (1 nM) for 3 days before plating. Cells were seeded in six-well plates and, the next day, starved in PRF for 24 h. Cells were exposed to different compounds at a concentration of 100 nM for 72 h, and then subjected to cell-cycle analysis as described in “Materials and methods”. f MCF-7 cells on poly-L-lysine-coated glass coverslips were exposed to compounds (100 nM) in 10% PRF-CT with 1 nM E2 for 72 h. Control cells were treated with vehicle. DAPI stains DNA, and the secondary anti-mouse antibody to detect the antibody bound to Ki-67 is labeled with the cyanine dye Cy3. The cells were stained with DAPI (blue). Immunofluorescence staining of Ki-67 of cells was observed using fluorescence microscope. Red: Ki-67; blue: nucleus.Typical image is shown. Scale bars: 10 μm. Data represent a mean ± SEM of three independent experiments, each in triplicate; bars, SEM. *P ≤ 0.05 vs. control
After 24 h, cells were exposed for 3–6 days to various concentrations of compounds (1 nM– 10 μM) or left untreated. The incubation time and the compounds concentrations were chosen based on previous studies[17],[32]–[34]. The effects of the various drugs on cell proliferation at the indicated concentrations (1 nM– 10 μM) were determined by using a CCK8 kit (Dojindo Laboratories, Kumamoto, Japan) according to the manufacturer’s protocol. The absorbance at 450 nm was measured by using a Versamax microplate reader (Thermo Varioskan Flash, USA). Cell growth is expressed as the ratio of the cells compared with the control wells (untreated cells).

[2] = system: DMBA-induced mammary carcinoma; experiment: DMBA-induced mammary carcinoma, topical treatment; type: in vivo, female Sprague-Dawley rats; settings: cream 2.5% topically twice daily; for tumor growth: 4 weeks, ovariectomized rats given E2 1 μg/rat daily; for average tumor number after 28 days of treatment: 1.2 ± 0.15 at the beginning, control 4.3 ± 1.2
Method: Fig. 8 The effects of sterols on the DMBA-induced mammary carcinoma in rats. At an age of 50–54 days, female Sprague-Dawley rats were dosed intragastrically with 20 mg DMBA. when at least one tumor measuring 1 cm in diameter was found, the rats were ovariectomized and given intramuscular 1 μg/rat E2 daily. Animals were selected for experiments when at least one tumor per rat had reached a diameter of 1.5 cm. The skin covering the tumor was shaved and animals were divided into four groups. […] Untreated tumors served as controls. a Representative images of the tumors. b Tumor growth curve. c Average number of tumor nodules before and after treatment.The data represent six sets of independent experiments and are shown as the means ± SD. *P < 0.05, **P ≤ 0.01 vs. control group
At an age of 50–54 days, female Sprague-Dawley rats were dosed intragastrically with 20 mg DMBA (Sigma Chemical Co.) dissolved in peanut oil (1 ml/rat). Starting at 40 days after DMBA treatment, animals were examined weekly by palpation; when at least one tumor measuring 1 cm in diameter was found, the rats were ovariectomized using ether anesthesia and were given E2 (1 μg/rat) by daily intramuscular injection. Animals were selected for experiments when at least one tumor per rat had reached a diameter of 1.5 cm. Tumors were measured with calipers once a week, and their volume was calculated according to the following formula: volume = length × (width)^2 × 0.5. Rats were then divided into four groups of six animals each. […] All creams were applied for 4 weeks. […] Tumor growth in the control and treated groups was expressed as a value relative to the initial tumor volume, measured on the 1st day of treatment and taken as 1. At the beginning and end of the treatment period, the number of tumor nodules was counted.

Structure (SMILES): C[C@]12CC[C@H]3[C@@H](CCC4=C(O)C(=O)CC[C@@]43C)[C@@H]1CC[C@@H]2O [4-OHT, 4-hydroxytestosterone]
- AR binding to ARE site of CCND1-promoter [1]: almost as strong as that of DHT
- H3K4me3 at CCND1 promoter, relative to untreated control cells [1]: < 20%
- H3K9ac at CCND1 promoter [1]: decreased
- H3K9me3 at CCND1 promoter [1]: increased
- H3K27ac at CCND1 promoter [1]: unchanged
- proliferation of MCF-7 cells (MCF-7 cells): strongly antiproliferative
- antiproliferative effect in presence of OH-Flutamide, MCF-7 (MCF-7 cells): behave like DHT
- tumor growth [2]: shrinkage of the tumor
- appearance of new tumors at end of treatment ([2]; 28 days, vs control): almost did not develop new tumors
- average tumor number after 28 days of treatment [2]: 1.6 ± 0.4 tumors per rat

Structure (SMILES): C=C1C[C@H]2[C@@H]3CC[C@H](O)[C@@]3(C)CC[C@@H]2[C@@]2(C)C=CC(=O)C=C12 [17-HEXE, 17-hydroexemestane]
- AR binding to ARE site of CCND1-promoter [1]: almost as strong as that of DHT
- H3K4me3 at CCND1 promoter, relative to untreated control cells [1]: < 20%
- H3K9ac at CCND1 promoter [1]: decreased
- H3K9me3 at CCND1 promoter [1]: increased
- H3K27ac at CCND1 promoter [1]: unchanged
- antiproliferative effect in presence of OH-Flutamide, MCF-7 (MCF-7 cells): behave like DHT
- tumor growth [2]: growth arrest
- average tumor number after 28 days of treatment [2]: 2.85 ± 0.68 tumors per rat

Structure (SMILES): C[C@]12CCC(=O)C[C@@H]1CC[C@@H]1[C@@H]2CC[C@]2(C)[C@@H](O)CC[C@@H]12 [DHT, dihydrotestosterone]
- AR binding to ARE site of CCND1-promoter [1]: strong increase
- proliferation of MCF-7 cells (MCF-7 cells): inhibits the proliferation of MCF-7 and ZR-75-1 cells at all tested concentrations
- antiproliferative effect in presence of OH-Flutamide, MCF-7 (MCF-7 cells): almost completely abolished
- tumor growth [2]: growth arrest
- average tumor number after 28 days of treatment [2]: 2.25 ± 0.8 tumors per rat
